Reference: ChEMBL document CHEMBL5316334, “Structure-Based Design of Novel Alkynyl Thio-Benzoxazepinone Receptor-Interacting Protein Kinase-1 Inhibitors: Extending the Chemical Space from the Allosteric to ATP Binding Pockets” (J Med Chem, 2023)
Calls of active or inactive are those of the source. No cut-off for these calls is given here.

How the values were obtained:
Mus musculus [1] = assay: Anti-necroptic activity against mTNFalpha induced C57BL/6 mouse systemic inflammatory response syndrome model assessed as increase in survival rate 5 mg/kg, IG pretreated with compound for 1 hr followed by mTNFalpha injection and measured after 60 mins; type: functional; conditions: time 2 hrs
Mus musculus [2] = assay: Anti-necroptic activity against mTNFalpha induced C57BL/6 mouse systemic inflammatory response syndrome model assessed as increase in survival rate 20 mg/kg, IG pretreated with compound for 1 hr followed by mTNFalpha injection and measured after 60 mins; type: functional; conditions: time 2 hrs
HT-29 [3] = assay: Cytotoxicity against human HT-29 cells assessed as reduction in cell viability measured for 16 to 24 hrs by Cell-titer-glo assay; type: functional; conditions: time 16-24 hrs
Mus musculus [4] = assay: Anti-necroptosis activity against TNFalpha-induced C57BL/6 mouse systemic inflammatory response syndrome model assessed as protection of body temperature at 5 to 20 mg/kg, IG pretreated with compound followed by TNFalpha-stimulation and measured after 2 to 3 hrs by thermometer analysis; type: functional, organism-based; conditions: dose 5-20 mg/kg, time 2-3 hrs
HT-29 [5] = assay: Anti-necroptosis activity against human HT-29 cells assessed as inhibition of TSZ-induced necroptosis pretreated with compound followed by TSZ induction and measured for 12 hrs by Cell-titer-glo assay; type: functional, cell-based; conditions: dose 0.63-100 nM
HT-29 [6] = assay: Anti-necroptosis activity against human HT-29 cells assessed as inhibition of TSZ-induced necroptosis preincubated for 30 mins followed by compound addition and measured for 16 hrs by Cell-titer-glo assay; type: functional, cell-based
[7] = target: T1, Mixed lineage kinase domain-like protein (Homo sapiens) (UniProt Q8NB16); assay: Inhibition of MLKL phosphorylation […] (TNFalpha, Smac mimetic and z-VAD-FMK) induced-human HT-29 cells assessed as decrease in phosphorylated MLKL level at 12 nM pretreated with compound followed by TSZ-induction and measured after 6 hrs by immunoblotting analysis; type: cell-based
T1 sequence (whole entry): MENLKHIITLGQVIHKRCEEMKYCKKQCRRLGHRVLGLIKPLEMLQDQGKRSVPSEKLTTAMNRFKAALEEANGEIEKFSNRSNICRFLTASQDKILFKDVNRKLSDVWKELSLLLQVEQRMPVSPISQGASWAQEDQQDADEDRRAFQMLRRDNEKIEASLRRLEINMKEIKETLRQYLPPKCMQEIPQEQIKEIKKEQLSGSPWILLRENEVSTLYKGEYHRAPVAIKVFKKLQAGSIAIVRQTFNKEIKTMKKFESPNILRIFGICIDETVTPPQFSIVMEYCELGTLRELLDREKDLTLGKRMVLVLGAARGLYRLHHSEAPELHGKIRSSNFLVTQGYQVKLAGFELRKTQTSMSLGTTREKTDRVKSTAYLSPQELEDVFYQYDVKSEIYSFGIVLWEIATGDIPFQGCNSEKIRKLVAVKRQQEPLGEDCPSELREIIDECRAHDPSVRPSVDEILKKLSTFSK

Mus musculus [8] = assay: Anti-necroptic activity against mTNFalpha induced C57BL/6 mouse systemic inflammatory response syndrome model assessed as increase in survival rate 5 mg/kg, IG pretreated with compound for 1 hr followed by mTNFalpha injection and measured after 15 mins; type: functional; conditions: time 75 min, 1.25 h
[9] = target: Receptor-interacting serine/threonine-protein kinase 3 (Homo sapiens) (UniProt Q9Y572); assay: Inhibition of RIPK3 phosphorylation in TSZ (TNFalpha, Smac mimetic and z-VAD-FMK) induced -human HT-29 cells assessed as decrease in phosphorylated RIPK3 level at 12 nM pretreated with compound followed by TSZ-induction by immunoblotting analysis; type: cell-based; conditions: time 2-6 hrs, TDE = time-dependent effect
[10] = target: T1, Mixed lineage kinase domain-like protein (Homo sapiens); assay: Inhibition of MLKL phosphorylation in TSZ (TNFalpha, Smac mimetic and z-VAD-FMK) induced-human HT-29 cells assessed as decrease in phosphorylated MLKL level at 12 nM pretreated with compound followed by TSZ-induction by immunoblotting analysis; type: cell-based; conditions: time 2-6 hrs, TDE = time-dependent effect
[11] = target: T2, Receptor-interacting serine/threonine-protein kinase 1 (Homo sapiens, UniProt Q13546); assay: Binding affinity to recombinant RIPK1 (unknown origin) assessed as dissociation constant by kinomescan assay
T2 sequence (Q13546 whole entry): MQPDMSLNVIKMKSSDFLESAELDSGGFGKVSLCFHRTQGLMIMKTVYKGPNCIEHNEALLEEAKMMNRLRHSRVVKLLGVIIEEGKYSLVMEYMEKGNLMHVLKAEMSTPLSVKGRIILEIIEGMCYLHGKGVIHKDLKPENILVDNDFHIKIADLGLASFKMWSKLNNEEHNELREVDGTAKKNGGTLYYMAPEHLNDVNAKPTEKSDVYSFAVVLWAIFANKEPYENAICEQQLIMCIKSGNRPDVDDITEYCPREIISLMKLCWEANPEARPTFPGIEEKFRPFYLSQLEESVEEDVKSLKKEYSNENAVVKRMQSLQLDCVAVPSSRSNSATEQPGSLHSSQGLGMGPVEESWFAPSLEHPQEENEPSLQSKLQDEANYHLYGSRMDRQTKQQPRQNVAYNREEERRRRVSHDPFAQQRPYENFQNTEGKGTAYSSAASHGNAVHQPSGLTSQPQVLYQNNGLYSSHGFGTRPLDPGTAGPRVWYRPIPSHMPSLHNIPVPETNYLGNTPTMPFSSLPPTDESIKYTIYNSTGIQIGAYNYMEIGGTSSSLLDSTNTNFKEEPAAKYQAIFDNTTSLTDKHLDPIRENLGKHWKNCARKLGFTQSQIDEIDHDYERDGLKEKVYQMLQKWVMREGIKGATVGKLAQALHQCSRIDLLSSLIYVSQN

[12] = target: T3, Receptor-interacting serine/threonine-protein kinase 1 (Homo sapiens) (UniProt Q13546); assay: Inhibition of RIPK1 phosphorylation in TSZ (TNFalpha, Smac mimetic and z-VAD-FMK) induced-human HT-29 cells assessed as decrease in phosphorylated RIPK1 level at 12 nM pretreated with compound followed by TSZ-induction by immunoblotting analysis; type: cell-based; conditions: time 6.0 hrs, TDE = time-dependent effect
T3 sequence (whole entry): T2 sequence (Q13546 whole entry)

[13] = target: T3, Receptor-interacting serine/threonine-protein kinase 1 (Homo sapiens); assay: Inhibition of RIPK1 phosphorylation in TSZ (TNFalpha, Smac mimetic and z-VAD-FMK) induced-human HT-29 cells assessed as decrease in phosphorylated RIPK1 level at 12 nM pretreated with compound followed by TSZ-induction and measured after 6 hrs by immunoblotting analysis; type: cell-based
Mus musculus [14] = assay: Anti-necroptic activity against mTNFalpha induced C57BL/6 mouse systemic inflammatory response syndrome model assessed as increase in survival rate 10 mg/kg, IG pretreated with compound for 1 hr followed by mTNFalpha injection and measured after 15 mins; type: functional; conditions: time 75 min, 1.25 h
Mus musculus [15] = assay: Anti-necroptic activity against mTNFalpha induced C57BL/6 mouse systemic inflammatory response syndrome model assessed as increase in survival rate 20 mg/kg, IG pretreated with compound for 1 hr followed by mTNFalpha injection and measured after 15 mins; type: functional; conditions: time 75 min, 1.25 h
[16] = target: T1, Mixed lineage kinase domain-like protein (Homo sapiens); assay: Inhibition of MLKL phosphorylation in TSZ (TNFalpha, Smac mimetic and z-VAD-FMK) induced-human HT-29 cells assessed as decrease in phosphorylated MLKL level pretreated with compound followed by TSZ-induction and measured after 6 hrs by immunoblotting analysis; type: cell-based; conditions: dose 1.5-12 nM
L929 = assay: Anti-necroptic activity against mouse L929 cells assessed as inhibition of TNFalpha/z-VAD-FMK-induced necroptosis pretreated with compound followed by TNFalpha/z-VAD-FMK-induction and measured after 24 hrs by Cell-titer-glo assay; type: functional, cell-based; conditions: dose 0.02-10 µM
[17] = target: Receptor-interacting serine/threonine-protein kinase 3 (Homo sapiens) (UniProt Q9Y572); assay: Inhibition of RIPK3 phosphorylation […] (TNFalpha, Smac mimetic and z-VAD-FMK) induced-human HT-29 cells assessed as decrease in phosphorylated RIPK3 level at 12 nM pretreated with compound followed by TSZ-induction and measured after 6 hrs by immunoblotting analysis; type: cell-based
HT-29 [18] = assay: Anti-necroptic activity in human HT-29 cells assessed as inhibition of TNFalpha and cycloheximide-induced necroptosis pretreated with compound followed by TNFalpha and cycloheximide-induction and measured after 24 hrs by Cell-titer-glo assay; type: functional, cell-based
Mus musculus [19] = assay: Anti-necroptic activity against TNFalpha-induced C57BL/6 mouse systemic inflammatory response syndrome model assessed as protection of body temperature at 20 mg/kg, IG pretreated with compound followed by TNFalpha-stimulation and measured after 2 to 3 hrs by thermometer analysis; type: functional, organism-based; conditions: time 2-3 hrs
[20] = target: T3, Receptor-interacting serine/threonine-protein kinase 1 (Homo sapiens); assay: Inhibition of RIPK1 phosphorylation in TSZ (TNFalpha, Smac mimetic and z-VAD-FMK) induced-human HT-29 cells assessed as decrease in phosphorylated RIPK1 level pretreated with compound followed by TSZ-induction and measured after 6 hrs by immunoblotting analysis; type: cell-based; conditions: dose 1.5-12 nM
U-937 = assay: Anti-necroptic activity against human U-937 cells assessed as inhibition of TSZ-induced necroptosis at 100 nM pretreated with compound followed by TSZ induction and measured for 12 hrs by Cell-titer-glo assay; type: functional, cell-based
Mus musculus [21] = assay: Anti-necroptic activity against TNFalpha-induced C57BL/6 mouse serum assessed as reduction in IL-1beta level at 20 mg/kg, IG pretreated with compound followed by TNFalpha-stimulation for 4 hrs; type: functional, organism-based
HT-29 [22] = assay: Inhibition of RIPK1-RIPK3-MLKL pathway in TSZ induced human HT-29 cells assessed as reduction in necrosome formation at 12 nM measured after 6 hrs by Western blot analysis; type: cell-based
[23] = target: Receptor-interacting serine/threonine-protein kinase 3 (Homo sapiens) (UniProt Q9Y572); assay: Inhibition of RIPK3 phosphorylation in TSZ (TNFalpha, Smac mimetic and z-VAD-FMK) induced-human HT-29 cells assessed as decrease in phosphorylated RIPK3 level pretreated with compound followed by TSZ-induction and measured after 6 hrs by immunoblotting analysis; type: cell-based; conditions: dose 1.5-12 nM
Mus musculus [24] = assay: Anti-necroptic activity against TNFalpha-induced C57BL/6 mouse serum assessed as reduction in IL-6 level at 20 mg/kg, IG pretreated with compound followed by TNFalpha-stimulation for 4 hrs; type: functional, organism-based
Mus musculus [25] = assay: Anti-necroptic activity against TNFalpha-induced C57BL/6 mouse serum assessed as reduction in IL-6 level at 5 mg/kg, IG pretreated with compound followed by TNFalpha-stimulation for 4 hrs; type: functional, organism-based
HT-29 [26] = assay: Cytotoxicity against human HT-29 cells assessed as reduction in cell viability at 100 uM measured for 16 to 24 hrs by Cell-titer-glo assay; type: functional, cell-based; conditions: time 16-24 hrs
Mus musculus [27] = assay: Anti-necroptic activity against TNFalpha-induced C57BL/6 mouse serum assessed as reduction in IL-1beta level at 5 mg/kg, IG pretreated with compound followed by TNFalpha-stimulation for 4 hrs; type: functional, organism-based
Mus musculus [28] = assay: Anti-necroptic activity against mTNFalpha induced C57BL/6 mouse systemic inflammatory response syndrome model assessed as increase in survival rate 15 mg/kg, IG pretreated with compound for 1 hr followed by mTNFalpha injection and measured after 15 mins; type: functional; conditions: time 75 min, 1.25 h

Sequence of Receptor-interacting serine/threonine-protein kinase 3 (Homo sapiens) (Q9Y572 whole entry, looked up, the tested form may be a part): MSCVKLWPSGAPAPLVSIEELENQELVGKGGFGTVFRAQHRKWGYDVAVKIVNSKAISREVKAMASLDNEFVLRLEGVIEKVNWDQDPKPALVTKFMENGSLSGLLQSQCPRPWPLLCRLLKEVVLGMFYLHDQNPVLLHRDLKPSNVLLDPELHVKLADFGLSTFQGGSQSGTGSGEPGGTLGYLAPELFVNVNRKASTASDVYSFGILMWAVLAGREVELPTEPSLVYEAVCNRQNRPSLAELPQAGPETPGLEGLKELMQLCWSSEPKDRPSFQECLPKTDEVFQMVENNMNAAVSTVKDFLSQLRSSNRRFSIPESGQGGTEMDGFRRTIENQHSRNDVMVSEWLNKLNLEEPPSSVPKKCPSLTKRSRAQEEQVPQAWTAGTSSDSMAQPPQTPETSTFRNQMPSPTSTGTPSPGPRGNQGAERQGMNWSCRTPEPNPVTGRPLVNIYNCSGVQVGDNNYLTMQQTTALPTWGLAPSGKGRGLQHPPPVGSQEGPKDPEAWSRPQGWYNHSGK

| Compound | CC50 (HT-29 [3]) [nM] | Activity (Mus musculus [4]) | EC50 (HT-29 [6]) [nM] | inhibition [7] | Activity (Mus musculus [8]) [%] | inhibition [9] | inhibition [10] | Kd [11] [nM] | inhibition [12] | inhibition [13] | Activity (Mus musculus [14]) [%] | inhibition [16] | Activity (L929) | inhibition [17] | Activity (HT-29 [18]) | Activity (Mus musculus [19]) | inhibition [20] | Activity (U-937) | inhibition (HT-29 [22]) | inhibition [23] | other results |
| --- | --- | --- | --- | --- | --- | --- | --- | --- | --- | --- | --- | --- | --- | --- | --- | --- | --- | --- | --- | --- | --- |
| CN1C(=O)[C@@H](NC(=O)c2n[nH]c(Cc3ccccc3)n2)COc2ccccc21 [GSK2982772] | > 100000 | Active |  |  |  |  |  |  |  |  |  |  |  |  |  |  |  |  |  |  | Activity (Mus musculus [1]): 50%; Activity (Mus musculus [2]): 92% |
| C#Cc1ccc2c(c1)N(C)C(=S)[C@@H](NC(=O)c1n[nH]c(Cc3ccccc3)n1)CO2 | > 100000 | Active | 3.7 | Active | 66 | Tde | Tde | 9.7 | Tde | Active | 83 | Dose-Dependent Effect | Dose-Dependent Effect | Active | inactive | Active | Dose-Dependent Effect | Active | Active | Dose-Dependent Effect | Activity (HT-29 [5]): Dose-Dependent Effect; Activity (Mus musculus [15]): 100%; Activity (Mus musculus [21]): Active; Activity (Mus musculus [24]): Active |
| CN1C(=S)[C@@H](NC(=O)c2n[nH]c(Cc3ccccc3)n2)COc2ccc(C#Cc3cccc(C#N)c3)cc21 | > 100000 |  | 3.2 | Active | 58 | Tde | Tde | 70 | Tde | Active | 83 | Dose-Dependent Effect | Dose-Dependent Effect | Active | inactive | Active | Dose-Dependent Effect | Active | Active | Dose-Dependent Effect | Activity (Mus musculus [25]): Active; Activity (HT-29 [26]): inactive; Activity (Mus musculus [27]): Active; Activity (Mus musculus [28]): 100% |
